Here are results for 22 compounds from PMC1500806, “Carrageenan Is a Potent Inhibitor of Papillomavirus Infection” (PLoS Pathogens, 2006).

Converted amounts (≈) assume the structure as drawn. Like-named read-outs stand apart in the source and are kept apart here. Positions of bridges follow the written chain, without caps; N, C: chain ends. Non-standard residues stand in square brackets, D forms with d. Residues, ends and D or L forms follow the SMILES beside them. *: point of attachment. Ileψ(thiazoline)Cys = CC[C@H](C)[C@H](N)C1=N[C@H](C(=O)*)CS1; dOrn = NCCC[C@@H](N)C(=O)O Bounds are passed on as bounds.

For data set [1], the system named is HeLa cells. Briefly: Cytotoxicity (WST-1 turnover and/or cell morphology). Format: cell-based. The method, then: (§1) Compounds were tested using a previously described PsV-based papillomavirus inhibition assay. Briefly, HeLa cells were plated at 6,000 cells/well in 50 μl of medium in 96-well plates. Candidate inhibitors were dissolved at 1–10 mg/ml (or reconstituted as directed by manufacturer) in sterile water or appropriate solvent, then subjected to a ten-point three-fold serial dilution covering an appropriate concentration range. Diluted candidate inhibitor (50 μl) was added to preplated HeLa cells, followed by 50 μl of diluted PsV stock. The cells were incubated for 24 h, fed by addition of 100 μl of DMEM-10, then subjected to flow cytometric analysis 48–56 h after infection. IC50 values and 95% CI were determined using Prism (GraphPad Software, San Diego, California, United States) to calculate a variable slope sigmoidal dose-response curve.
(§2) Cytotoxicity was defined as a >50% reduction in the net turnover of the metabolic substrate WST-1 (Roche, Indianapolis, Indiana, United States) and/or by the appearance of dramatic alterations in the microscopic appearance of cell morphology at the time of harvest.
Background: Formazan colour is commonly taken as a measure of viable cells.

Test in data set [2]: as above
Format: cell-based. Particulars: human, HeLa cells; >50% reduction in WST-1 turnover and/or altered cell morphology. The method, then: as §1, §2

[3] abbreviates: >50% reduction in WST-1 turnover and/or altered cell morphology.

As for `O=[N+]([O-])c1ccc(Cl)c([N+](=O)[O-])c1` [1-Chloro-2,4-dinitrobenzene (DNCB), 1-Chloro-2,4-dinitrobenzene], the Cytotoxicity in data set [1] (setting [3]) is 7 µg/mL.
Compound `OCCS` [2-Mercaptoethanol] came in with a Cytotoxicity in data set [1] of over 100 µg/mL.
Regarding `CC[C@H](C)[C@H](N)C1=N[C@H](C(=O)N[C@@H](CC(C)C)C(=O)N[C@H](CCC(=O)O)C(=O)N[C@H](C(=O)N[C@H]2CCCCNC(=O)[C@H](CC(N)=O)NC(=O)[C@@H](CC(=O)O)NC(=O)[C@H](Cc3cnc[nH]3)NC(=O)[C@@H](Cc3ccccc3)NC(=O)[C@H]([C@@H](C)CC)NC(=O)[C@@H](CCCN)NC2=O)[C@@H](C)CC)CS1` [Bacitracin] ({Ileψ(thiazoline)Cys}-L[dE]IK[dOrn]I[dF]H[dD]N; lactam 4-C (inferred)), the CC50 (as a rule, the concentration giving 50% cytotoxicity) in data set [2] is over 420 µg/mL.
For the compound `CCCCS(=N)(=O)CCC(N)C(=O)O` (stereo not shown) [Buthionine sulfoximine (BSO), Buthionine sulfoximine], in data set [1] (human), the Cytotoxicity was over 7 µg/mL.
The compound `CC[C@H](C)[C@H](NC(=O)CNC(=O)[C@H](CC(=O)O)NC(=O)[C@H](CCCNC(=N)N)NC(=O)[C@@H](NC(=O)[C@H](CC(N)=O)NC(=O)[C@H](CCC(N)=O)NC(=O)CNC(=O)[C@@H](NC(=O)[C@H](CCCCN)NC(=O)[C@H](CCC(=O)O)NC(=O)[C@@H](NC(=O)[C@H](CCCCN)NC(=O)[C@H](CCCCN)NC(=O)[C@H](Cc1ccccc1)NC(=O)[C@H](CC(C)C)NC(=O)[C@H](CCCCN)NC(=O)[C@H](Cc1c[nH]c2ccccc12)NC(=O)[C@@H](N)CCCCN)[C@@H](C)CC)C(C)C)[C@@H](C)CC)C(=O)N[C@H](C(=O)N[C@@H](CCCCN)C(=O)N[C@@H](C)C(=O)NCC(=O)N1CCC[C@H]1C(=O)N[C@@H](C)C(=O)N[C@H](C(=O)N[C@@H](C)C(=O)N[C@H](C(=O)N[C@H](C(=O)NCC(=O)N[C@@H](CCC(N)=O)C(=O)N[C@@H](C)C(=O)N[C@H](C(=O)N[C@@H](CCC(N)=O)C(=O)N[C@H](C(=O)N[C@@H](C)C(=O)N[C@@H](CCCCN)C(N)=O)[C@@H](C)CC)[C@@H](C)O)C(C)C)C(C)C)C(C)C)[C@@H](C)CC` [Cecropin A (porcine)] (H-KWKLFKKIEKVGQNIRDGIIKAGPAVAVVGQATQIAK-NH2; N-terminus and C-terminus assumed) displayed a CC50 in data set [2] of over 100 µg/mL.
As for `CC[C@H](C)[C@H](NC(=O)[C@H](CCCCN)NC(=O)[C@H](CCCCN)NC(=O)[C@H](Cc1ccccc1)NC(=O)[C@H](CC(C)C)NC(=O)[C@H](CCCCN)NC(=O)[C@H](Cc1c[nH]c2ccccc12)NC(=O)[C@@H](N)CCCCN)C(=O)NCC(=O)N[C@@H](C)C(=O)N[C@H](C(=O)N[C@@H](CC(C)C)C(=O)N[C@@H](CCCCN)C(=O)N[C@H](C(=O)N[C@@H](CC(C)C)C(N)=O)C(C)C)C(C)C` [Cecropin A-Mellitin hybrid] (H-KWKLFKKIGAVLKVL-NH2; N-terminus and C-terminus assumed), the CC50 in data set [2] is 11 µg/mL (≈ 6.21 µM).
Compound `O[C@@H](CS)[C@@H](O)CS` [Dithiothreotol] had a Cytotoxicity in data set [1] of over 100 µg/mL.
Consider `O=C(O)c1cc(SSc2ccc([N+](=O)[O-])c(C(=O)O)c2)ccc1[N+](=O)[O-]` [Ellman's reagent], for which the Cytotoxicity in data set [1] was 1,300 μg/ml.
Same read-out and setting: then `Cl.N=C(N)N` [Guanidine hydrochloride], with over 475 µg/mL.
As for `CC(C)C[C@H](NC(=O)[C@H](C)NC(=O)[C@H](CCCCN)NC(=O)[C@H](CCCCN)NC(=O)[C@H](CC(C)C)NC(=O)[C@H](C)NC(=O)[C@H](CCCCN)NC(=O)[C@H](CCCCN)NC(=O)[C@H](CC(C)C)NC(=O)[C@H](CCCCN)NC(=O)[C@H](CCCCN)NC(=O)[C@H](CC(C)C)NC(=O)[C@H](C)NC(=O)[C@H](CCCCN)NC(=O)[C@H](CCCCN)NC(=O)[C@H](CC(C)C)NC(=O)[C@H](C)NC(=O)[C@H](CCCCN)NC(=O)[C@H](CC(C)C)NC(=O)[C@H](C)NC(=O)[C@H](CC(C)C)NC(=O)[C@H](C)NC(=O)[C@@H](N)Cc1ccccc1)C(=O)O` [Hecate] (H-FALALKALKKALKKLKKALKKAL-OH; N-terminus and C-terminus assumed), the midpoint of cytotoxicity in data set [2], the CC50, lay at 17 µg/mL (≈ 6.7 µM).
On the same count and under the same terms, the value for `CSCC[C@H](NC(=O)[C@H](CCCNC(=N)N)NC(=O)[C@H](Cc1c[nH]c2ccccc12)NC(=O)[C@H](CCC(N)=O)NC(=O)[C@H](Cc1c[nH]c2ccccc12)NC(=O)[C@H](CCCNC(=N)N)NC(=O)[C@@H](N)CCCNC(=N)N)C(=O)N[C@@H](CCCCN)C(=O)N[C@@H](CCCCN)C(=O)N[C@@H](CC(C)C)C(=O)NCC(=O)O` [Lactoferricin B 4–14 fragment] (H-RRWQWRMKKLG-OH; N-terminus and C-terminus assumed) was over 15 µg/mL.
On the same count and under the same terms, then `CC[C@H](C)[C@H](NC(=O)CN)C(=O)NCC(=O)N[C@@H](CCCCN)C(=O)N[C@@H](Cc1ccccc1)C(=O)N[C@@H](CC(C)C)C(=O)N[C@@H](Cc1c[nH]cn1)C(=O)N[C@@H](CO)C(=O)N[C@@H](C)C(=O)NCC(=O)N[C@@H](CCCCN)C(=O)N[C@@H](Cc1ccccc1)C(=O)NCC(=O)N[C@@H](CCCCN)C(=O)N[C@@H](C)C(=O)N[C@@H](Cc1ccccc1)C(=O)N[C@H](C(=O)NCC(=O)N[C@@H](CCC(=O)O)C(=O)N[C@H](C(=O)N[C@@H](CCSC)C(=O)N[C@@H](CCCCN)C(=O)N[C@@H](CO)C(=O)O)[C@@H](C)CC)C(C)C` [Magainin-I] (H-GIGKFLHSAGKFGKAFVGEIMKS-OH), with over 100 µg/mL.
Same read-out and setting: the value for `CC[C@H](C)[C@H](NC(=O)CN)C(=O)NCC(=O)N[C@@H](C)C(=O)N[C@H](C(=O)N[C@@H](CC(C)C)C(=O)N[C@@H](CCCCN)C(=O)N[C@H](C(=O)N[C@@H](CC(C)C)C(=O)N[C@H](C(=O)N[C@H](C(=O)NCC(=O)N[C@@H](CC(C)C)C(=O)N1CCC[C@H]1C(=O)N[C@@H](C)C(=O)N[C@@H](CC(C)C)C(=O)N[C@H](C(=O)N[C@@H](CO)C(=O)N[C@@H](Cc1c[nH]c2ccccc12)C(=O)N[C@H](C(=O)N[C@@H](CCCCN)C(=O)N[C@@H](CCCNC(=N)N)C(=O)N[C@@H](CCCCN)C(=O)N[C@@H](CCCNC(=N)N)C(=O)N[C@@H](CCC(N)=O)C(=O)N[C@@H](CCC(N)=O)C(N)=O)[C@@H](C)CC)[C@@H](C)CC)[C@@H](C)O)[C@@H](C)O)C(C)C)C(C)C` [Melittin] was 4 µg/mL (≈ 1.41 µM).
`C[C@@H]1[C@H](O)[C@@H](C)/C=C/C=C/CC/C=C/C=C/C=C/C=C/C(O[C@H]2O[C@H](C)[C@@H](O)[C@H](N)[C@@H]2O)CC2O[C@](O)(CC(O)C(O)CCC(O)CC(O)CC(O)CC(=O)O[C@H]1C)CC(O)C2C(=O)O` (stereo partly shown) [Nystatin]: the Cytotoxicity in data set [1] was 100 µg/mL.
For the compound `CC(C)[C@H](NC(=O)[C@H](CCCCN)NC(=O)CNC(=O)CNC(=O)[C@H](CCC(N)=O)NC(=O)[C@H](CCCCN)NC(=O)CNC(=O)[C@H](CCCNC(=N)N)NC(=O)CNC(=O)[C@@H](N)CCCCN)C(=O)N[C@@H](CCCNC(=N)N)C(=O)N[C@@H](C)C(=O)N[C@@H](CCCCN)C(=O)N[C@@H](C)C(=O)N[C@@H](CCCCN)C(=O)N[C@H](C(=O)N[C@@H](CCCNC(=N)N)C(=O)N[C@@H](CO)C(=O)N[C@@H](CO)C(=O)O)[C@@H](C)O` [Parasin-I] (H-KGRGKQGGKVRAKAKTRSS-OH), the 50% cytotoxic concentration (CC50) in data set [2] is over 100 µg/mL.
The compound `N=C(N)NCCC[C@H](NC(=O)[C@H](CCCNC(=N)N)NC(=O)[C@H](CCCNC(=N)N)NC(=O)[C@H](CCCNC(=N)N)NC(=O)[C@H](CCCNC(=N)N)NC(=O)[C@H](CCCNC(=N)N)NC(=O)[C@@H](N)CCCNC(=N)N)C(=O)O` [Poly-arginine7] gave a CC50 in data set [2] of over 100 µg/mL.
As for `CCCCCCCCCCCCOS(=O)(=O)[O-].[Na+]` [Sodium dodecyl sulfate], the Cytotoxicity in data set [1] came to 333 µg/mL.
Consider `CC[C@H](C)[C@@H]1NC(=O)CNC(=O)[C@H](CCCNC(=N)N)NC(=O)[C@H](Cc2ccc(O)cc2)NC(=O)[C@@H]2CSSC[C@H](NC1=O)C(=O)N[C@@H](Cc1ccc(O)cc1)C(=O)N[C@@H](CCCNC(=N)N)C(=O)N[C@@H](CCCNC(=N)N)C(=O)N[C@H](C(=O)N[C@@H](CCCNC(=N)N)C(N)=O)CSSC[C@H](NC(=O)[C@H](Cc1c[nH]c3ccccc13)NC(=O)[C@@H](N)CCCCN)C(=O)N[C@@H](Cc1ccccc1)C(=O)N[C@@H](CCCNC(=N)N)C(=O)N[C@@H](C(C)C)C(=O)N2` [Tachyplesin-I] (H-KWCFRVCYRGICYRRCR-NH2; disulfide 3-16, 7-12), for which the CC50 in data set [2] was found to be 100 µg/mL (≈ 44.2 µM).
For `C[C@@H](O)[C@H](N)C(=O)N[C@@H](CCCCN)C(=O)N1CCC[C@H]1C(=O)N[C@@H](CCCNC(=N)N)C(=O)O` [Tuftsin] (H-TKPR-OH; N-terminus and C-terminus assumed), the half-maximal cytotoxic concentration (CC50) in data set [2] is over 100 µg/mL.
Gelatin: the Cytotoxicity in data set [1] (setting [3]) is over 100 µg/mL.
Still for that read-out and setting: the value for “Gramicidins A-D [Gramicidins A-D (B. Brevis)]” was 1.2 µg/mL.
Same read-out and setting: the value for Poly-(arginine-aminocaproyl) was over 100 µg/mL.
